Reference: patent US5045566A, “Novel imidate insecticides” (ICI Americas Inc., priority 1989, dated 1991)

Key:
Type in all cases: in vivo
[1] = tested on: Tobacco Budworm [Heliothis virescens (Fabricius)] eggs; test: Tobacco budworm eggs (TBW-E); settings: percent in solution; 2-day old eggs
Summary of the method: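 Mortality of dipped eggs served as read-out, recorded after untreated controls hatched and began feeding. Treatments used acetone solutions from 0.1% downward, with eggs incubated at 78° F; LC50 is expressed as percent of compound in the solution.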

[2] = tested on: Cabbage Looper [Trichoplusia ni (Hubner)]; test: Cabbage looper leaf dip (CL), 3-5 days; settings: percent in solution, second-instar larvae
Summary of the method: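 Steps: dilute compound in 50-50 acetone-water from 0.1% downward; immerse cotyledon pieces 2-3 s and dry; place in humid petri dishes with five second-instar larvae; record mortality at 3-5 days. Dosage-mortality curves yield LC50 as percent in solution.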

[3] = tested on: Housefly [Musca domestica]; test: Housefly contact mortality in dishes (HF), 48 hours; settings: μg of test compound per 25 female flies
Summary of the method: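 Residual contact test: acetone dilution, 0.01% peanut oil spreader, solvent evaporated; 25 ♀ flies (1-2 d old) per cage; sugar-water plug; 48 h mortality read. LC50 in μg/25 female flies, from dose-mortality curves; top dose 100 μg/25 flies.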

[4] = tested on: Aster Leafhopper [Macrosteles fascifrens (Stal)]; test: Aster leafhopper on dipped oat seedlings (LH), 48 hours; settings: percent in solution, adults/nymphs
Summary of the method: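 Three ~10 cm oat seedlings per cup were dipped 2-3 seconds in 50-50 acetone-water compound solutions, dried, and caged with ten adult/nymph leafhoppers. Mortality was counted after 48 hours at concentrations from 0.05% downward. LC50, as percent compound in solution, came from dosage-mortality curves.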

[5] = tested on: Maize weevil [Sitophilus zeamais (Motschulsky)]; test: Maize weevil on dipped corn seeds (MW), 48 hours; settings: percent in solution, adult weevils
Summary of the method: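 LC50, given as percent of compound in dipping solution, comes from dosage-mortality curves over concentrations descending from 0.01%. Four corn seeds soaked 2-3 s in 50:50 acetone:water solution were dried and held with 10 adult weevils, about 25° C, mortality read after 48 h.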

[6] = tested on: Black Bean Aphid [Aphis fabae (Scop.)]; test: Black bean aphid spray test on nasturtium (BBA), 48 hours; settings: percent of test compound in sprayed solution
Summary of the method: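 LC50, given as percent test compound in the sprayed liquid, was calculated from dosage-mortality curves using concentrations from 0.05% downward. Sprays in 50:50 acetone-water went to runoff on ~5 cm nasturtiums carrying 25-50 aphids of mixed ages, one day after infestation. Deaths were counted 48 h later under greenhouse conditions.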

SMILES | LC50 TBW E (eggs) [1] | LC50 CL [2] | LC50 HF [3] | LC50 LH [4] | LC50 MW [5] | LC50 BBA [6]
CC(C)C(=Nc1ccc(C#N)cc1)OCc1cccc(Oc2ccccc2)c1 [Compound 172] | 0.04% | 0.002% | 5 µg | > 0.05% | > 0.01% | > 0.05%
CCC(=Nc1ccc2c(c1)OCO2)OCc1cccc(Oc2ccccc2)c1 [Compound 178, N-(3,4-Methylenedioxyphenyl)-O-(3-phenoxybenzyl)propionimidate] | > 0.1% | 0.004% | 6 µg | > 0.05% | > 0.01% | 0.05%
Cc1ccc(N=C(OCc2ccc(F)c(Oc3ccccc3)c2)C(C)C)cc1Cl [Compound 356] | 0.025% | > 0.1% | < 100 µg | < 0.05% | > 0.01% | 0.001%
CC(=Nc1ccc(F)c(F)c1)OCc1coc(Cc2ccccc2)c1 [Compound 526] | > 0.1% | > 0.1% | 8.3 µg | > 0.05% | > 0.01% | > 0.05%
CC(C)C(=Nc1cccc(C(F)(F)F)c1)OCc1cccc(Nc2ccc(F)cc2)c1 [Compound 513] | > 0.1% | 0.007% | 81 µg | > 0.05% | > 0.01% | > 0.05%
CC(C)C(=Nc1ccc2c(c1)OCO2)OCc1cc(Oc2ccc(F)cc2)ccn1 [Compound 515] | > 0.1% | 0.0015% | 28 µg | > 0.05% | > 0.01% | > 0.05%
CC(C)C(=Nc1ccc2c(c1)OCO2)OCc1cccc(Oc2ccc(Cl)cc2)c1 [Compound 240] | 0.04% | 0.0003% | 14 µg | > 0.05% | > 0.01% | 0.001%
CC(C)C(=Nc1ccc(F)c(Cl)c1)OCc1cccc(Nc2ccc(F)cc2)c1 [Compound 512] | > 0.1% | 0.003% | 35 µg | > 0.05% | > 0.01% | > 0.05%
C=CCOc1cccc(COC(=Nc2ccc(F)c(Cl)c2)C(C)C)c1 [Compound 479] | > 0.1% | 0.013% | 66 µg | > 0.05% | > 0.01% | > 0.05%
CC(C)C(=Nc1ccc(F)c(Cl)c1)OCc1cccc(Oc2ccc(Cl)cn2)c1 [Compound 527] | 0.035% | 0.00065% | 47 µg | > 0.05% | > 0.01% | 0.03%
Cc1cc(N=C(OCc2ccc(F)c(Oc3ccc(F)cc3)c2)C(C)C)ccc1Br [Compound 359] | 0.023% | > 0.1% | < 100 µg | 0.05% | > 0.01% | 0.0006%
